Data on one compound can be found in patent publication US12134769B2, “MicroRNA-198 as a tumor suppressor in ovarian cancer” (Baylor College of Medicine, priority 2011, dated 2024).

The structures appear in SMILES notation.

Assay [1] deals with MIA-MSLN cells. As to the kind of experiment: NF-κB inhibitor assay, expression by real-time RT-PCR and western blot. The assay is classed as cell-based, human. As to the method: Western blots were performed as previously described (Li et al., 2008). Membranes were probed with: anti-MSLN monoclonal antibody (1:1000) (Abcam); PBX-1 polyclonal antibody (1:1000) and Caspase 3 antibody (1:1000) (Cell Signaling); OCT-2 polyclonal antibody (1:400), and VCP polyclonal antibody (1:200) (Santa Cruz Biotechnology); or anti-β-actin, Tubulin, LaminA or GAPDH antibodies (1:10,000) (Sigma Aldrich). Secondary incubation was performed with horseradish peroxidase-linked secondary antibody (1:2,000) (anti-mouse, anti-goat or anti-rabbit) (Cell Signaling).
Differential expression of 95 miRNAs chosen for their potential roles in cancer, cell development, and apoptosis was analyzed by RT-PCR using the QuantiMir System from SBI System Biosciences in both MIA-V and MIA-MSLN cells. The array plate also included the U6 transcript as a normalization signal. cDNAs from different cell lines and tissue samples were mixed with SYBR® Green Mastermix (Bio-Rad Laboratories) plus the universal reverse primer. Specific primers (1 μl) were added to each well of the qPCR plate. Expression levels of each mature miRNA were evaluated using comparative threshold cycle (Ct) method as normalized to that of U6 (2—ΔCt). The expression level of miR-198 was measured in all subsequent experiments using the same method. Real-time RT PCR was performed as previously described for MSLN, ZEB1, PBX-1, and VCP (Li et al., 2008). The primer sequences used are as follows:
MIA-MSLN and MIA-V control cells were treated with 0, 12.5 or 25 μM of the IKK inhibitor Wedelolactone (Calbiochem). The cells were collected after 72 h and protein, RNA, and miRNA extracts were prepared and assayed accordingly.
On the technique in general: Real-time PCR tracks product formation cycle by cycle.

Assay [2] has as its system AsPC1 cells. As to the kind of experiment: NF-κB inhibitor assay, OCT-2 expression. The assay is classed as cell-based, human. The following applies: FIG. 11B.

`COc1cc(O)c2c(c1)oc(=O)c1c3cc(O)c(O)cc3oc21` [Wedelolactone]: the ZEB1 expression result in assay [1] (MIA-MSLN cells) was “completely blocked ZEB1 expression”. Besides, in assay [1] (MIA-MSLN cells, compared to untreated controls, 72 h), the “increase in miR-198 expression” value was about 17 fold. Further, the OCT-2 expression entry in assay [1] (MIA-MSLN cells, mRNA and protein levels) is recorded as “almost complete block in OCT-2 expression”; in assay [2], “OCT-2 expression is blocked”. Further, the PBX-1 expression entry in assay [1] (Wedelolactone inhibition of NF-κB, FIG. 3F) is reported as “downregulation of PBX-1 expression”.
